This note sets out measurements from patent US11730778B2, “Method of increasing the level and production of metabolized phytonutrients in a subject” (ACCESS BUSINESS GROUP INTERNATIONAL LLC, priority 2019, dated 2023).

In this data set the test system is intestinal microbiota (fecal samples) of human subjects. The data set can be described thus: in-vitro fermentations of fecal samples (intestinal microbiota-representing microarray) with phytonutrient precursor compounds. The format is in vitro ADME. The settings on record: in-vitro fermentation; for Phytonutrient Producer Status: conversion of the phytonutrient precursor compound, S1: fecal sample of Subject 1 (S1); for Phytonutrient Producer Status: conversion of the phytonutrient precursor compound, S2: fecal sample of Subject 2 (S2); for Phytonutrient Producer Status: conversion of the phytonutrient precursor compound, S3: fecal sample of Subject 3 (S3); for Phytonutrient Producer Status: conversion of the phytonutrient precursor compound, S4: fecal sample of Subject 4 (S4); for Phytonutrient Producer Status: conversion of the phytonutrient precursor compound, S5: fecal sample of Subject 5 (S5); for Phytonutrient Producer Status: conversion of the phytonutrient precursor compound, S6: fecal sample of Subject 6 (S6); for Phytonutrient Producer Status: conversion of the phytonutrient precursor compound, S7: fecal sample of Subject 7 (S7); for Phytonutrient Producer Status: conversion of the phytonutrient precursor compound, S8: fecal sample of Subject 8 (S8); for Phytonutrient Producer Status: conversion of the phytonutrient precursor compound, S9: fecal sample of Subject 9 (S9); for Phytonutrient Producer Status: conversion of the phytonutrient precursor compound, S10: fecal sample of Subject 10 (S10); for Phytonutrient Producer Status: conversion of the phytonutrient precursor compound, S11: fecal sample of Subject 11 (S11). As for the experimental part:
The phytonutrient producer status of 11 human subjects (“Subjects 1-11”, or “S1”-“S11”, respectively) was assessed by determining the microbial metabolism of various phytonutrient precursor compounds. […] The metabolism of the phytonutrient precursor compound in each assay was then determined via monitoring conversion (+), partial conversion (±), or no conversion (−) of the phytonutrient precursor compound over time.

As to `OC[C@H]1O[C@@H](Oc2cc3c(O)cc(O)cc3[o+]c2-c2ccc(O)c(O)c2)[C@H](O)[C@@H](O)[C@@H]1O` [Cyanidin-3-glucoside], the “Phytonutrient Producer Status: conversion of the phytonutrient precursor compound, S1” value was “±”; the “Phytonutrient Producer Status: conversion of the phytonutrient precursor compound, S2” value (from here on “Phytonutrient Producer Status: conversion … S2”) was “±”; the “Phytonutrient Producer Status: conversion of the phytonutrient precursor compound, S3” value (“Phytonutrient Producer Status: conversion … S3” for short) is listed as “+”; the “Phytonutrient Producer Status: conversion of the phytonutrient precursor compound, S4” value (“Phytonutrient Producer Status: conversion … S4” for short) was “±”. Besides, the “Phytonutrient Producer Status: conversion of the phytonutrient precursor compound, S5” value (“Phytonutrient Producer Status: conversion … S5” for short) is listed as “±”; the “Phytonutrient Producer Status: conversion of the phytonutrient precursor compound, S6” value (“Phytonutrient Producer Status: conversion … S6” for short) is listed as “+”; the “Phytonutrient Producer Status: conversion of the phytonutrient precursor compound, S7” value (“Phytonutrient Producer Status: conversion … S7” for short) is reported as “+”; the “Phytonutrient Producer Status: conversion of the phytonutrient precursor compound, S8” value (“Phytonutrient Producer Status: conversion … S8” for short) is “±”. For the same compound, the “Phytonutrient Producer Status: conversion of the phytonutrient precursor compound, S9” value (“Phytonutrient Producer Status: conversion … S9” for short) is “+”; the “Phytonutrient Producer Status: conversion of the phytonutrient precursor compound, S10” value (“Phytonutrient Producer Status: conversion … S10” for short) is given as “+”; the “Phytonutrient Producer Status: conversion of the phytonutrient precursor compound, S11” value (from here on “Phytonutrient Producer Status: conversion … S11”) is on record as “+”.
Take `COc1cc(C[C@@H](CO[C@@H]2O[C@H](CO)[C@@H](O)[C@H](O)[C@H]2O)[C@H](CO[C@@H]2O[C@H](CO)[C@@H](O)[C@H](O)[C@H]2O)Cc2ccc(O)c(OC)c2)ccc1O` [Secoisolariciresinol diglucoside]: the “Phytonutrient Producer Status: conversion of the phytonutrient precursor compound, S1” value is “+”; the “Phytonutrient Producer Status: conversion … S2” value is recorded as “+”; the “Phytonutrient Producer Status: conversion … S3” value is given as “±”; the “Phytonutrient Producer Status: conversion … S4” value is reported as “+”. Further, the “Phytonutrient Producer Status: conversion … S5” value was “+”; the “Phytonutrient Producer Status: conversion … S6” value was “±”; the “Phytonutrient Producer Status: conversion … S7” value was “±”; the “Phytonutrient Producer Status: conversion … S8” value was “±”. Besides, the “Phytonutrient Producer Status: conversion … S9” value is “+”; the “Phytonutrient Producer Status: conversion … S10” value was “+”; the “Phytonutrient Producer Status: conversion … S11” value is “+”.
Regarding `O=c1c(O)c(-c2ccc(O)c(O)c2)oc2cc(O)cc(O)c12` [Quercetin], the “Phytonutrient Producer Status: conversion of the phytonutrient precursor compound, S1” value was “−”; the “Phytonutrient Producer Status: conversion … S2” value was “+”; the “Phytonutrient Producer Status: conversion … S3” value was “+”; the “Phytonutrient Producer Status: conversion … S4” value is recorded as “+”. Besides, the “Phytonutrient Producer Status: conversion … S5” value is on record as “−”; the “Phytonutrient Producer Status: conversion … S6” value is “+”; the “Phytonutrient Producer Status: conversion … S7” value was “+”; the “Phytonutrient Producer Status: conversion … S8” value is “−”. Also, the “Phytonutrient Producer Status: conversion … S9” value is listed as “−”; the “Phytonutrient Producer Status: conversion … S10” value is “+”; the “Phytonutrient Producer Status: conversion … S11” value is reported as “−”.
For `COc1ccc([C@@H]2CC(=O)c3c(O)cc(O[C@@H]4O[C@H](CO[C@@H]5O[C@@H](C)[C@H](O)[C@@H](O)[C@H]5O)[C@@H](O)[C@H](O)[C@H]4O)cc3O2)cc1O` [Hesperidin], the “Phytonutrient Producer Status: conversion of the phytonutrient precursor compound, S1” value is “+”; the “Phytonutrient Producer Status: conversion … S2” value is reported as “+”; the “Phytonutrient Producer Status: conversion … S3” value was “+”; the “Phytonutrient Producer Status: conversion … S4” value is reported as “+”. For the same compound, the “Phytonutrient Producer Status: conversion … S5” value is recorded as “±”; the “Phytonutrient Producer Status: conversion … S6” value is “+”; the “Phytonutrient Producer Status: conversion … S7” value was “+”; the “Phytonutrient Producer Status: conversion … S8” value is on record as “+”. In addition, the “Phytonutrient Producer Status: conversion … S9” value is recorded as “+”; the “Phytonutrient Producer Status: conversion … S10” value is listed as “+”; the “Phytonutrient Producer Status: conversion … S11” value is recorded as “+”.
As to `Oc1cc(O)c2c(c1)O[C@H](c1cc(O)c(O)c(O)c1)[C@H](O)C2` [Epigallocatechol], the “Phytonutrient Producer Status: conversion of the phytonutrient precursor compound, S1” value is on record as “+”; the “Phytonutrient Producer Status: conversion … S2” value is listed as “+”; the “Phytonutrient Producer Status: conversion … S3” value was “±”; the “Phytonutrient Producer Status: conversion … S4” value is reported as “+”. In addition, the “Phytonutrient Producer Status: conversion … S5” value is “+”; the “Phytonutrient Producer Status: conversion … S6” value is recorded as “+”; the “Phytonutrient Producer Status: conversion … S7” value was “+”; the “Phytonutrient Producer Status: conversion … S8” value is on record as “+”. Also, the “Phytonutrient Producer Status: conversion … S9” value is on record as “+”; the “Phytonutrient Producer Status: conversion … S10” value was “+”; the “Phytonutrient Producer Status: conversion … S11” value is listed as “+”.
`O=c1oc2c(O)c(O)cc3c(=O)oc4c(O)c(O)cc1c4c23` [Ellagic acid]: the “Phytonutrient Producer Status: conversion of the phytonutrient precursor compound, S1” value is given as “±”; the “Phytonutrient Producer Status: conversion … S2” value is “±”; the “Phytonutrient Producer Status: conversion … S3” value is “±”; the “Phytonutrient Producer Status: conversion … S4” value is “−”. In addition, the “Phytonutrient Producer Status: conversion … S5” value is given as “−”; the “Phytonutrient Producer Status: conversion … S6” value is “−”; the “Phytonutrient Producer Status: conversion … S7” value was “−”; the “Phytonutrient Producer Status: conversion … S8” value is reported as “±”. The “Phytonutrient Producer Status: conversion … S9” value was “−”; the “Phytonutrient Producer Status: conversion … S10” value is “±”; the “Phytonutrient Producer Status: conversion … S11” value was “−”.
